Results from patent publication US20230293490A1, “PROFILIN1:ACTIN INHIBITOR AS AN ANTI-ANGIOGENIC COMPOUND” (University of Pittsburgh- Of the Commonwealth System of …, priority 2020, published 2023).

What was measured:
human dermal VEC = test: Matrigel cord assay (in vitro angiogenesis); type: cell-based; settings: for concentration able to inhibit angiogenesis: matrigel cord assay, human dermal VEC
Method: (§1) Note that contrasting its effect in cells, in biochemical assay Pfn1 inhibits actin polymerization by actin sequestering, and neither compound affects actin polymerization kinetics without the presence of Pfn1 (an important screening criterion).
(§2) Cell culture, transfection and viral transduction: Murine VHL-deleted variant of RENCA (referred to as RVN cells) cells were cultured in DMEM with 10% (v/v) FBS and 1% (v/v) antibiotics. Human VHL-negative 786-0 cells (source: ATCC) were cultured in RPMI-1640 media supplemented with 10% (v/v) FBS and antibiotics. HmVEC-1, a widely used immortalized human dermal microvascular EC line (ATCC; CRL-3243—referred to as VEC), were cultured in MCDB-131 (Life Technologies; Carlsbad, CA) growth medium supplemented with 10% (v/v) FBS, 1% (v/v) antibiotics, 10 ng/mL EGF, 1 μg/mL Hydrocortisone and 10 mM L-Glutamine. For adenovirus infection, cells were plated, allowed to attach and then infected with adenovirus encoding either GFP (Ad-GFP) or Pfn1 (Ad-Pfn1) at a MOI of 500 for 24 h, before further incubation for an additional 48h in fresh culture media prior to use. For knockdown studies, cells were transfected with 50 nM of either smart-pool control or Pfn1 siRNA for 72 h.

Pfn1-actin interaction = test: Pyrene-actin polymerization assay; type: biochemical
Source text: as §1

RVN cells [1] = test: RVN cell proliferation assay; type: cell-based, murine; settings: dose-dependent
Method: as §2, with “For knockdown studies, cells were transfected with 50 nM of either smart-pool control or Pfn1 siRNA for 72 h.” left out
(§3) Cell migration and proliferation assays: For single-cell migration experiments, RVN, VEC and 786-0 cells were plated in 24-well plates coated with type I collagen (Millipore) overnight. […] For cell proliferation assay, one thousand RCC cells were plated per well in 96-well plates using quadruplicate determinations, with proliferation assessed by time-course analyses of DAPI-stained nuclei based on images acquired over 3 to 5 random fields per well.

RVN cells [2] = test: Serum-induced chemotactic (transwell) migration of RVN cells; type: cell-based, murine; settings: dose-dependent
Method: as §2, with “For knockdown studies, cells were transfected with 50 nM of either smart-pool control or Pfn1 siRNA for 72 h.” left out
as §3

RENCA cells = test: Subcutaneous RENCA tumor model, daily intratumoral injection; type: in vivo, Balb/c mice
Source text: To determine whether C74 has any therapeutic benefit in vivo, we performed an exploratory study in which we established subcutaneous tumors by transplantation of RENCA cells in syngeneic Balb/c mice and injected either C74 or DMSO (vehicle) directly at the tumor cell inoculation site daily over a course of 19 days starting from day 1.
In vivo tumorigenesis: In 6 to 8 week old BALB/cJ mice, 1×10^6 RENCA cells were implanted subcutaneously in a 1:1 PBS:Matrigel (R&D Systems; Minneapolis, MN) mixture, supplemented with 81 μg C74 or DMSO control. Intratumoral injections were then given daily with either 320 μg C74 or control dissolved in saline, through day 19 post-implantation. On day 20, mice were sacrificed and harvested tumors were weighed. All animal experiments were performed according to the institutionally approved animal welfare guidelines.

choroidal explant = test: Choroidal explant angiogenesis culture (ex vivo)
choroidal NV = test: Laser-induced choroidal NV (CNV) model, IVT injection; type: in vivo, mice; settings: IVT C74 (50 μM)
Method: FIGS. 8A-8D. […] Laser-induced choroidal NV (CNV—an in vivo model that induces sub-retinal NV in response to laser injury in mice and is widely used to study NV aspects of wet AMD) in the settings of IVT injection of either DMSO (VEH) or C74 (50 μM) (panel C) and associated quantification (panel D).

[3] = test system: human retinal endothelial cells; test: Angiogenic capability of human retinal endothelial cells in vitro; type: cell-based
[4] = test system: human renal cancer cell line; test: Human renal cancer cell line proliferation; type: cell-based; settings: dose dependent
[5] = test system: human renal cancer cell line; test: Human renal cancer cell line migration; type: cell-based; settings: dose dependent

| SMILES | concentration able to inhibit angiogenesis (human dermal VEC) [µM] | reversal of Pfn1's inhibition of actin polymerization (Pfn1-actin interaction; actin plus Pfn1, fluorescence measures actin polymerization) | effect on actin polymerization without Pfn1 (Pfn1-actin interaction; compound alone, no Pfn1) | fold lower concentration than C2 to inhibit angiogenesis (human dermal VEC; C74 vs C2) [fold] | range of concentrations reducing proliferation (RVN cells [1]) [µM] | range of concentrations reducing migration (RVN cells [2]) [µM] | average end-point tumor burden (tumor weight) (RENCA cells; daily injection at tumor site over 19 days, tumors weighed day 20, n=10 animals) [mg] | tumor angiogenesis (CD31-positive immune-reactive region of tumor histosections) (RENCA cells; daily intratumoral administration, relative to DMSO) | choroidal neovascularization ex vivo (choroidal explant) | choroidal neovascularization in vivo (choroidal NV) | angiogenic capability [3] | proliferation [4] | migration [5] |
| --- | --- | --- | --- | --- | --- | --- | --- | --- | --- | --- | --- | --- | --- |
| Oc1cccc(C2c3c(-c4ccccc4)nnc(O)c3Nc3nnnn32)c1 (centres unmarked) [C2, 8-(3-hydroxyphenyl)-10-phenyl-2,4,5,6,7,11,12-heptaazatricyclo[7.4.0.0^3,^7]trideca-1(13),3,5,9,11-pentaen-13-ol, reference compound] | 50 | – | – | – | – | – | – | – | – | – | – | – | – |
| Cc1n[nH]c(O)c1C(c1ccc(Br)cc1)c1c(C)n[nH]c1O [C74, 4-[(4-bromophenyl)(5-hydroxy-3-methyl-1H-pyrazol-4-yl)methyl]-3-methyl-1H-pyrazol-5-ol] | 10 | can reverse Pfn1's inhibition of actin polymerization | does not significantly alter actin polymerization on its own | ~5 | 10 to 25 | 10 to 25 | 978.8 ± 366.0 | reduces tumor angiogenesis | inhibited | inhibited | inhibited | reduced | reduced |
